In PubChem BioAssay (NCI):
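Briefly, cells in 96-well plates were exposed to five compound concentrations for 48 h, and endpoints were estimated by linear interpolation. Definition used: TGI = concentration required for complete inhibition of growth.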

Legend:
Experiment in all cases: NCI tumour cell line growth inhibition, 48 h
[1] = test system: CAKI-1 renal
[2] = test system: CCRF-CEM leukemia
[3] = test system: COLO 205 colon
[4] = test system: DU-145 prostate
[5] = test system: IGROV1 ovarian
[6] = test system: MDA-MB-231 breast
[7] = test system: NCI-H23 lung
[8] = test system: NCI-H522 lung
[9] = test system: OVCAR-5 ovarian
[10] = test system: SK-MEL-2 melanoma
[11] = test system: UACC-257 melanoma
[12] = test system: UACC-62 melanoma

Row | SMILES | TGI [1] [µM] | TGI [2] [µM] | TGI [3] [µM] | TGI [4] [µM] | TGI [5] [µM] | TGI [6] [µM] | TGI [7] [µM] | TGI [8] [µM] | TGI [9] [µM] | TGI [10] [µM] | TGI [11] [µM] | TGI [12] [µM]
1 | CNc1ccc2c(c1)Cc1ccccc1-2 | 90.7 | > 100 | > 100 | > 100 | > 100 | > 100 | > 100 | 50.8 | > 100 | > 100 | > 100 | 89.7
2 | C=C1CC=CC(C)(C)C1C/C=C(\C)C(O)CBr (stereo not given) | 54.1 | > 100 | > 100 | > 100 | > 100 | > 100 | > 100 | 23.2 | > 100 | > 100 | > 100 | > 100
3 | COc1cc2c(cc1O)CC[n+]1cc3c(OC)c(OC)ccc3cc1-2 | > 100 | > 100 | > 100 | > 100 | > 100 | > 100 | > 100 | > 100 | > 100 | > 100 | > 100 | > 100
4 | COc1ccc(/C=N/Nc2nc3ccccc3c(=O)n2-c2ccccc2)c(OCc2ccccc2)c1 | > 100 | > 100 | > 100 | > 100 | > 100 | > 100 | > 100 | > 100 | > 100 | > 100 | > 100 | > 100
5 | CCN(CC(=O)O)CC(=O)O | > 100 | > 100 | > 100 | > 100 | > 100 | > 100 | > 100 | > 100 | > 100 | > 100 | > 100 | > 100
6 | CC(C)Cc1c(C#N)c(C#N)c(N)n1Cc1ccccc1 | > 100 | > 100 | > 100 | > 100 | > 100 | > 100 | > 100 | > 100 | > 100 | > 100 | > 100 | > 100
7 | c1ccc(-c2ccc(N=NN3CCCC3)cc2)cc1 | > 100 | > 100 | > 100 | > 100 | > 100 | > 100 | > 100 | > 100 | > 100 | > 100 | > 100 | > 100
8 | CC(C)(C)OC(=O)c1ccc(NCc2cc(O)ccc2O)cc1 | 2.61 | 3.9 | 5.48 | 43.3 | 5.47 | 9.31 | 16.8 | 0.557 | 21.9 | 18.8 | 14.9 | 15.9
9 | COC(=O)[C@H]1C=C[C@H](OC2OC(COC(C)=O)C(OC(C)=O)C(OC(C)=O)C2OC(C)=O)n2c(=O)n(-c3ccccc3)c(=O)n21 (stereo not given in full) | 2.4 | 16.3 | 3.6 | 21.1 | 18.4 | 24.5 | 15.6 | 0.504 | 25.7 | 30.6 | 20.6 | 3.01
10 | Cc1cccc(NC(Nc2cccc(C)c2)=C(C(Cl)=C(Cl)Cl)[N+](=O)[O-])c1 | 35.6 | > 100 | 28.3 | > 57.5 | 20.3 | 17 | 23.6 | 21 | > 72.1 | 48.5 | > 53.4 | 40.6
11 | COc1ccc(N2C(=O)C3c4[nH]c5ccccc5c4C4C(C)CCCC4C3C2=O)cc1 (stereo not given) | > 100 | > 100 | > 100 | > 100 | > 100 | 98.8 | > 100 | > 56.3 | > 100 | > 100 | > 100 | > 100
12 | Cc1ccc(-n2cc(-c3ccc(Cl)cc3)c3c2N=CN2NC(c4ccco4)=NC32)cc1 (stereo not given) | 27.3 | > 100 | > 100 | > 100 | 72.3 | 26 | 72.4 | 90 | > 100 | 27.5 | > 100 | 31.5
13 | C(=N/Nc1ccc(-c2nc3ccccc3[nH]2)cc1)/c1c(-c2ccccc2)[nH]c2ccccc12 | > 100 | > 100 | – | > 100 | > 100 | 12 | > 100 | 2.02 | – | 0.794 | > 100 | –
14 | COC(=O)c1sc2ncc3c(c2c1N)CC(C)CC3 (stereo not given) | > 100 | > 100 | > 100 | > 100 | > 100 | > 100 | > 100 | > 100 | > 100 | > 100 | > 100 | > 100
15 | O=C(/C=C1\C[C@H]2C=Nc3ccccc3C(=O)N2C1)NCCCCCNC(=O)/C=C1\C[C@H]2C=Nc3ccccc3C(=O)N2C1 | 6.38 | 12.7 | > 21 | 27.4 | 23.1 | 30.4 | 26.2 | 2.51 | 33.7 | 29.2 | 15.7 | 28.8
16 | COP(=O)(CC(=O)C1OC(OCc2ccccc2)C(OCc2ccccc2)C(OCc2ccccc2)C1OCc1ccccc1)OC (stereo not given) | 19.5 | > 100 | 15 | > 100 | > 100 | 61.1 | > 100 | > 100 | > 100 | 11 | 43.9 | 17.8
17 | Nc1n[nH]c2ccccc12 | > 100 | > 100 | > 100 | > 100 | > 100 | > 100 | > 100 | > 100 | > 100 | > 100 | > 100 | > 100
18 | COC(=O)C1=C(C)N2[C@H](C(=O)O)CS[C@@]2(C)[C@H](C(=O)OC)[C@H]1c1cccc([N+](=O)[O-])c1 | > 100 | > 100 | > 100 | > 100 | > 100 | > 100 | > 100 | > 100 | > 100 | > 100 | > 100 | > 100
19 | COC1OC2COC(C)(C)OC2C2OC(C)(C)OC12 (stereo not given) | 33.1 | 48.8 | > 100 | > 100 | > 100 | > 100 | > 100 | > 100 | > 100 | > 100 | > 100 | > 100
